# Measurements from paper PMC4163472, “Crystal Structure of Deinococcus radiodurans RecQ Helicase Catalytic Core Domain: The Interdomain Flexibility” (BioMed Research International, 2014).
# Molecular target: T1, DrRecQ helicase catalytic core (Deinococcus radiodurans, UniProt Q9RUU2)
# T1 construct: gene DR_1289; residues 5-517 seen in the complex (296-300 not visible); monomer
# T1 sequence (Q9RUU2 1-517): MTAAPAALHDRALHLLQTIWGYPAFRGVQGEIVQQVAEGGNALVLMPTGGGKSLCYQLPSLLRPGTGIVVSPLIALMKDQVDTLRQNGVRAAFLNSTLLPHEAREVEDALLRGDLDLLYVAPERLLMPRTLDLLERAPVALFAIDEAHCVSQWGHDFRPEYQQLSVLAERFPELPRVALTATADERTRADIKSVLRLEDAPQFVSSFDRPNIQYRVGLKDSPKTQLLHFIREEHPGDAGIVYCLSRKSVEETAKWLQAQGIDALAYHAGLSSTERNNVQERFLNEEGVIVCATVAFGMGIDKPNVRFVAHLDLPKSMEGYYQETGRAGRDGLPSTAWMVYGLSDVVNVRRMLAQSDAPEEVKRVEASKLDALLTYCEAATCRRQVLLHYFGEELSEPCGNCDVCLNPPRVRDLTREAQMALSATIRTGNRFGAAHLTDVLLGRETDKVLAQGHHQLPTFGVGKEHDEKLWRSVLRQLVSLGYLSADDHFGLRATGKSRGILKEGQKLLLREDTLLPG
# Assay: X-ray crystallography, […] A
# Type: binding
# Details: crystallised in 0.1 M imidazole pH 7.2, 16% PEG 20K; nucleotide pocket of D1 domain (motifs 0 and I); no magnesium added; authors suggest ADP arose from ATP hydrolysed during crystallization
smiles,measurement,value
Nc1ncnc2c1ncn2[C@@H]1O[C@H](COP(=O)(O)OP(=O)(O)O)[C@@H](O)[C@H]1O [ADP],"X-ray crystallography, 2.9 A",ADP is bound with extensive interactions with the protein
